How the values were obtained:
[1] = In vitro drug release from microparticles in PBS; assay type: physicochemical; conditions: for duration of in vitro drug release: PBS pH 7.4, 37° C., infinite sink, PEG3-PSA microparticles, 2% PEG; for drug released during the first 6 days / release over the initial 24 hours: from PEG3-PSA, infinite sink conditions
Description: PEG3-PSA is a polyanhydride polymer that undergoes surface erosion to deliver continuous drug release and has been previously used for ocular delivery. Particle disappearance parallels drug release due to surface erosion. Particles were suspended in phosphate buffered saline (PBS, pH 7.4) at 5 mg/mL and incubated at 37° C. on a rotating platform (140 RPM). At selected time points, supernatant was collected by centrifugation (8,000×g for 5 min) and particles were resuspended in fresh PBS. Drug content was measured by spectraphotometer.

[2] = systemic; cited from earlier work

| SMILES | duration of in vitro drug release [1] [days] | drug released during the first 6 days [1] [%] | release over the initial 24 hours [1] [%] | IOP reduction [2] [%] |
| --- | --- | --- | --- | --- |
| CCN[C@H]1C[C@H](C)S(=O)(=O)c2sc(S(N)(=O)=O)cc21 [dorzolamide] | 12 | 80 | 18 |  |
| CCN[C@H]1CN(CCCOC)S(=O)(=O)c2sc(S(N)(=O)=O)cc21 [brinzolamide] | 12 | 80 | 12 |  |
| CC(=O)Nc1nnc(S(N)(=O)=O)s1 [acetazolamide] |  |  |  | 30 |

Reference: patent US20190022016A1, “COMPOSITIONS FOR SUSTAINED RELEASE OF ANTI-GLAUCOMA AGENTS TO CONTROL INTRAOCULAR PRESSURE” (The Johns Hopkins University, priority 2016, published 2019)
